Reference: PubChem BioAssay (NCI)
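Tested at 5 concentrations; 48 h exposure; 96-well plates; endpoints linearly interpolated, else capped at highest concentration. GI50 = concentration required for 50% inhibition of growth. TGI is the concentration that stops growth completely.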

Columns and labels:
Test in all cases: DTP human tumour cell line panel, 48 h
UACC-257 melanoma = tested on: UACC-257 melanoma
HL-60(TB) leukemia = tested on: HL-60(TB) leukemia
SF-268 CNS = tested on: SF-268 CNS
SNB-19 CNS = tested on: SNB-19 CNS
RPMI-8226 leukemia = tested on: RPMI-8226 leukemia
ACHN renal = tested on: ACHN renal
NCI/ADR-RES ovarian = tested on: NCI/ADR-RES ovarian
K-562 leukemia = tested on: K-562 leukemia
U251 CNS = tested on: U251 CNS
786-0 renal = tested on: 786-0 renal
SW-620 colon = tested on: SW-620 colon
HS 578T breast = tested on: HS 578T breast
MCF7 breast = tested on: MCF7 breast
NCI-H460 lung = tested on: NCI-H460 lung
SF-295 CNS = tested on: SF-295 CNS
A549 NSCLC = tested on: A549 NSCLC
SK-MEL-2 melanoma = tested on: SK-MEL-2 melanoma
IGROV1 ovarian = tested on: IGROV1 ovarian
COLO 205 colon = tested on: COLO 205 colon
SR leukemia = tested on: SR leukemia
OVCAR-3 ovarian = tested on: OVCAR-3 ovarian
HT29 colon = tested on: HT29 colon
DU-145 prostate = tested on: DU-145 prostate
SNB-75 CNS = tested on: SNB-75 CNS
MDA-MB-435 = tested on: MDA-MB-435
SF-539 CNS = tested on: SF-539 CNS
SN12C renal = tested on: SN12C renal
LOX IMVI melanoma = tested on: LOX IMVI melanoma
PC-3 prostate = tested on: PC-3 prostate
UO-31 renal = tested on: UO-31 renal
M14 melanoma = tested on: M14 melanoma
CAKI-1 renal = tested on: CAKI-1 renal
KM12 colon = tested on: KM12 colon
OVCAR-8 ovarian = tested on: OVCAR-8 ovarian
MALME-3M melanoma = tested on: MALME-3M melanoma
MDA-MB-231 breast = tested on: MDA-MB-231 breast
HCT-116 colon = tested on: HCT-116 colon
NCI-H522 lung = tested on: NCI-H522 lung
SK-OV-3 ovarian = tested on: SK-OV-3 ovarian
UACC-62 melanoma = tested on: UACC-62 melanoma
T-47D breast = tested on: T-47D breast
OVCAR-5 ovarian = tested on: OVCAR-5 ovarian
NCI-H23 lung = tested on: NCI-H23 lung
RXF 393 renal = tested on: RXF 393 renal
TK-10 renal = tested on: TK-10 renal
NCI-H226 lung = tested on: NCI-H226 lung
EKVX NSCLC = tested on: EKVX NSCLC
HOP-62 NSCLC = tested on: HOP-62 NSCLC
HCT-15 colon = tested on: HCT-15 colon
OVCAR-4 ovarian = tested on: OVCAR-4 ovarian
MOLT-4 leukemia = tested on: MOLT-4 leukemia
SK-MEL-28 melanoma = tested on: SK-MEL-28 melanoma
SK-MEL-5 melanoma = tested on: SK-MEL-5 melanoma
HCC-2998 colon = tested on: HCC-2998 colon
HOP-92 NSCLC = tested on: HOP-92 NSCLC
A498 renal = tested on: A498 renal

For `C/C(=C\COP(=O)(O)OP(=O)(O)O)CCCOCc1ccccc1`, the TGI (UACC-257 melanoma) was over 100 µM, the TGI (HL-60(TB) leukemia) was over 100 µM and the TGI (SF-268 CNS) was over 100 µM. It also gave a TGI (SNB-19 CNS) of over 100 µM, a TGI (RPMI-8226 leukemia) of over 100 µM and a TGI (ACHN renal) of over 100 µM. For the same molecule, the TGI (NCI/ADR-RES ovarian) was over 100 µM, the TGI (K-562 leukemia) was over 100 µM and the TGI (U251 CNS) was over 100 µM. It also gave a TGI (786-0 renal) of over 100 µM, a TGI (SW-620 colon) of over 100 µM and a TGI (HS 578T breast) of over 100 µM. The TGI (MCF7 breast) was over 100 µM, the TGI (NCI-H460 lung) was over 100 µM and the TGI (SF-295 CNS) was over 100 µM. For the same molecule, the TGI (A549 NSCLC) was over 100 µM, the TGI (SK-MEL-2 melanoma) was over 100 µM and the TGI (IGROV1 ovarian) was over 100 µM. The TGI (COLO 205 colon) was over 100 µM, the TGI (SR leukemia) was over 100 µM and the TGI (OVCAR-3 ovarian) was over 100 µM. The TGI (HT29 colon) was over 100 µM, the TGI (DU-145 prostate) was over 100 µM and the TGI (SNB-75 CNS) was over 100 µM. The TGI (MDA-MB-435) was over 100 µM, the TGI (SF-539 CNS) was over 100 µM and the TGI (SN12C renal) was over 100 µM. The TGI (LOX IMVI melanoma) was over 100 µM, the TGI (PC-3 prostate) was over 100 µM and the TGI (UO-31 renal) was over 100 µM. It also gave a TGI (M14 melanoma) of over 100 µM, a TGI (CAKI-1 renal) of over 100 µM and a TGI (KM12 colon) of over 100 µM. For the same molecule, the TGI (OVCAR-8 ovarian) was over 100 µM, the TGI (MALME-3M melanoma) was over 100 µM and the TGI (MDA-MB-231 breast) was over 100 µM. It also gave a TGI (HCT-116 colon) of over 100 µM, a TGI (NCI-H522 lung) of over 100 µM and a TGI (SK-OV-3 ovarian) of over 100 µM. The TGI (UACC-62 melanoma) was over 100 µM, the TGI (T-47D breast) was over 100 µM and the TGI (OVCAR-5 ovarian) was over 100 µM. The TGI (NCI-H23 lung) was over 100 µM, the TGI (RXF 393 renal) was over 100 µM and the TGI (TK-10 renal) was over 100 µM. The TGI (NCI-H226 lung) was over 100 µM, the TGI (EKVX NSCLC) was over 100 µM and the TGI (HOP-62 NSCLC) was over 100 µM. It also gave a TGI (HCT-15 colon) of over 100 µM, a TGI (OVCAR-4 ovarian) of over 100 µM and a TGI (MOLT-4 leukemia) of over 100 µM. It also gave a TGI (SK-MEL-28 melanoma) of over 100 µM and a TGI (SK-MEL-5 melanoma) of over 100 µM.
`O=C(Nc1ccc(Cl)cc1)Nc1ccc(Cl)c(C(F)(F)F)c1` was tested, and the GI50 (UACC-257 melanoma) was 3.44 µM, the TGI (UACC-257 melanoma) was 11.8 µM and the GI50 (HL-60(TB) leukemia) was 1.74 µM. It also gave a TGI (HL-60(TB) leukemia) of 3.91 µM, a GI50 (SF-268 CNS) of 3.54 µM and a TGI (SF-268 CNS) of 12.2 µM. The GI50 (SNB-19 CNS) was 3.21 µM, the TGI (SNB-19 CNS) was 12.6 µM and the GI50 (HCC-2998 colon) was 3.12 µM. For the same molecule, the TGI (HCC-2998 colon) was 8.81 µM, the GI50 (ACHN renal) was 3.04 µM and the TGI (ACHN renal) was 12.1 µM. For the same molecule, the GI50 (NCI/ADR-RES ovarian) was 3.07 µM, the TGI (NCI/ADR-RES ovarian) was 10.5 µM and the GI50 (K-562 leukemia) was 1.06 µM. It also gave a TGI (K-562 leukemia) of 2.95 µM, a GI50 (U251 CNS) of 2.8 µM and a TGI (U251 CNS) of 11.4 µM. It also gave a GI50 (786-0 renal) of 2.75 µM, a TGI (786-0 renal) of 10.7 µM and a GI50 (SW-620 colon) of 2.93 µM. The TGI (SW-620 colon) was 9.66 µM, the GI50 (HS 578T breast) was 2.68 µM and the TGI (HS 578T breast) was 8.31 µM. The GI50 (MCF7 breast) was 2.16 µM, the TGI (MCF7 breast) was 7.85 µM and the GI50 (NCI-H460 lung) was 1.7 µM. The TGI (NCI-H460 lung) was 6.44 µM, the GI50 (SF-295 CNS) was 1.97 µM and the TGI (SF-295 CNS) was 8.87 µM. For the same molecule, the GI50 (A549 NSCLC) was 3.39 µM, the TGI (A549 NSCLC) was 15.8 µM and the GI50 (SK-MEL-2 melanoma) was 3.25 µM. It also gave a TGI (SK-MEL-2 melanoma) of 10 µM, a GI50 (IGROV1 ovarian) of 4.01 µM and a TGI (IGROV1 ovarian) of 16.2 µM. The GI50 (COLO 205 colon) was 1.63 µM, the TGI (COLO 205 colon) was 3.01 µM and the GI50 (OVCAR-3 ovarian) was 1.86 µM. It also gave a TGI (OVCAR-3 ovarian) of 7.76 µM, a GI50 (HT29 colon) of 2.86 µM and a TGI (HT29 colon) of 10.7 µM. For the same molecule, the GI50 (DU-145 prostate) was 3.66 µM, the TGI (DU-145 prostate) was 12.4 µM and the GI50 (SNB-75 CNS) was 1.97 µM. The TGI (SNB-75 CNS) was 7.73 µM, the GI50 (MDA-MB-435) was 2.45 µM and the TGI (MDA-MB-435) was 8.13 µM. It also gave a GI50 (HOP-92 NSCLC) of 1.55 µM, a TGI (HOP-92 NSCLC) of 5.03 µM and a GI50 (SF-539 CNS) of 2.61 µM. It also gave a TGI (SF-539 CNS) of 10.1 µM, a GI50 (SN12C renal) of 2.29 µM and a TGI (SN12C renal) of 10.5 µM. It also gave a GI50 (A498 renal) of 2.38 µM, a TGI (A498 renal) of 6.26 µM and a GI50 (LOX IMVI melanoma) of 3.31 µM. The TGI (LOX IMVI melanoma) was 11.6 µM, the GI50 (PC-3 prostate) was 2.35 µM and the TGI (PC-3 prostate) was 10.8 µM. The GI50 (UO-31 renal) was 2.54 µM, the TGI (UO-31 renal) was 10.2 µM and the GI50 (M14 melanoma) was 3.59 µM. It also gave a TGI (M14 melanoma) of 12.3 µM, a GI50 (CAKI-1 renal) of 2.27 µM and a TGI (CAKI-1 renal) of 8.84 µM. For the same molecule, the GI50 (KM12 colon) was 2.21 µM, the TGI (KM12 colon) was 6.56 µM and the GI50 (OVCAR-8 ovarian) was 4.04 µM. The TGI (OVCAR-8 ovarian) was 18.8 µM, the GI50 (MDA-MB-231 breast) was 1.75 µM and the TGI (MDA-MB-231 breast) was 3.91 µM. The GI50 (HCT-116 colon) was 1.95 µM, the TGI (HCT-116 colon) was 5.33 µM and the GI50 (NCI-H522 lung) was 4.05 µM. For the same molecule, the TGI (NCI-H522 lung) was 29.1 µM, the GI50 (SK-OV-3 ovarian) was 2.37 µM and the TGI (SK-OV-3 ovarian) was 6.8 µM. For the same molecule, the GI50 (UACC-62 melanoma) was 2.71 µM, the TGI (UACC-62 melanoma) was 14.7 µM and the GI50 (T-47D breast) was 1.22 µM. The TGI (T-47D breast) was 5.49 µM, the GI50 (OVCAR-5 ovarian) was 4.52 µM and the TGI (OVCAR-5 ovarian) was 14.9 µM. It also gave a GI50 (NCI-H23 lung) of 2.21 µM, a TGI (NCI-H23 lung) of 11 µM and a GI50 (TK-10 renal) of 4.25 µM. For the same molecule, the TGI (TK-10 renal) was 19.2 µM, the GI50 (EKVX NSCLC) was 2.48 µM and the TGI (EKVX NSCLC) was 11 µM. The GI50 (HOP-62 NSCLC) was 3 µM, the TGI (HOP-62 NSCLC) was 11.3 µM and the GI50 (HCT-15 colon) was 2.65 µM. The TGI (HCT-15 colon) was 11.6 µM, the GI50 (OVCAR-4 ovarian) was 2.33 µM and the TGI (OVCAR-4 ovarian) was 11.4 µM. It also gave a GI50 (MOLT-4 leukemia) of 1.72 µM, a TGI (MOLT-4 leukemia) of 4.4 µM and a GI50 (SK-MEL-28 melanoma) of 3.51 µM. It also gave a TGI (SK-MEL-28 melanoma) of 11.9 µM, a GI50 (SK-MEL-5 melanoma) of 1.55 µM and a TGI (SK-MEL-5 melanoma) of 2.99 µM.
